For 16 compounds, Ki and EC50 results are on record in patent publication US8530652B2, “Pyrrolopyrazoles, potent kinase inhibitors” (Agouron Pharmaceuticals, Inc., priority 2005, dated 2013).

Experiment [1] concerns the target PAK4 kinase domain (PAK4 KD) (Homo sapiens (Human), UniProt O96013). The experiment is described as follows: PAK4 kinase domain enzymatic assay (coupled PK/LDH, NADH absorbance at 340 nm). Format: biochemical. The settings on record: PAK4 kinase domain, 25 nM PAK4 KD, 0.04 mM ATP, pH 7.5.
Experiment [2] concerns the target PAK4 kinase activity in whole cells (TR-293-KDG, modified HEK 293 overexpressing GEF-H1b and PAK4 KD) (Homo sapiens (Human), UniProt O96013). The experiment in a line: PAK4 cellular assay: sandwich ELISA of PAK4-dependent phosphorylation of GEF-H1b in TR-293-KDG cells. It is filed as cell-based. The settings on record: doxycycline-induced, 3-hour exposure, phospho-GEF-H1b ELISA. In outline: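 HEK 293-derived TR-293-KDG cells overexpressing GEF-H1b, with PAK4 kinase domain induced overnight by doxycycline, then exposed to compound for 3 h. Lysates captured on anti-HA plates; phospho-GEF-H1b detected by phosphospecific antibody in sandwich ELISA. EC50 from four-parameter sigmoid fit.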
On the technique in general: An ELISA detects its analyte on a solid surface through an enzyme-linked reagent.

Sequence of PAK4 kinase activity in whole cells (TR-293-KDG, modified HEK 293 overexpressing GEF-H1b and PAK4 KD) (O96013 321-572): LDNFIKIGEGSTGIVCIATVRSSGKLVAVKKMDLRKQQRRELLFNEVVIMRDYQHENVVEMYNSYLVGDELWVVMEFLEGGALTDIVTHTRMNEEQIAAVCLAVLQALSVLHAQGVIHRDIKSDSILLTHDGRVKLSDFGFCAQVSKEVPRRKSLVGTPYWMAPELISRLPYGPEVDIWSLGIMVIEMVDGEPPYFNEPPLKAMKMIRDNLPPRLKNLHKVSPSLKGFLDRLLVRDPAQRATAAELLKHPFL
Sequence of PAK4 kinase domain (PAK4 KD) (O96013 321-572): as above

The Ki is the dissociation constant of the complex between target and ligand, obtained from inhibition or displacement. A low value points to a stronger hold on the target. For orientation: EC50 means the concentration needed to bring the measured effect to its halfway point. A lower EC50 goes with greater potency. Take `Cc1nccc(Nc2n[nH]c3c2CN(C(=O)N[C@H](CN(C)C)c2ccccc2)C3(C)C)n1` [Example 65, N-[(1S)-2-(dimethylamino)-1-phenylethyl]-6,6-dimethyl-3-[(2-methylpyrimidin-4-yl)amino]-4,6-dihydropyrrolo[3,4-c]pyrazole-5(1H)-carboxamide]: in experiment [1], the affinity, expressed as Ki, was 680 nM. The 50% effective concentration (EC50) in experiment [2] came out at 67.1 nM.
In experiment [1], `COc1ncc(F)c(Nc2n[nH]c3c2CN(C(=O)N[C@H](CN(C)C)c2ccccc2)C3(C)C)n1` [Example 66, N-[(1S)-2-(dimethylamino)-1-phenylethyl]-3-[(5-fluoro-2-methoxypyrimidin-4-yl)amino]-6,6-dimethyl-4,6-dihydropyrrolo[3,4-c]pyrazole-5(1H)-carboxamide] returned a Ki of 170 nM. Moreover, the EC50 in experiment [2] was < 3.9 nM.
The compound `CN(C)C[C@@H](NC(=O)N1Cc2c(Nc3ncncc3F)n[nH]c2C1(C)C)c1ccccc1` [Example 67, N-[(1S)-2-(dimethylamino)-1-phenylethyl]-3-[(5-fluoropyrimidin-4-yl)amino]-6,6-dimethyl-4,6-dihydropyrrolo[3,4-c]pyrazole-5(1H)-carboxamide] showed a Ki in experiment [1] of 280 nM. This compound also came in with an EC50 in experiment [2] of 20 nM.
`CN(C)C[C@@H](OC(=O)N1Cc2c(Nc3ncnc4ccsc34)n[nH]c2C1(C)C)c1ccccc1` [Example 68, (1S)-2-(dimethylamino)-1-phenylethyl 6,6-dimethyl-3-(thieno[3,2-d]pyrimidin-4-ylamino)-4,6-dihydropyrrolo[3,4-c]pyrazole-5(1H)-carboxylate]: the affinity in experiment [1], expressed as Ki, was 6.7 nM. Besides, a half-maximal response in experiment [2] (EC50) required 20 nM.
In turn, `Cc1nc(Nc2n[nH]c3c2CN(C(=O)O[C@H](CN(C)C)c2ccccc2)C3(C)C)c2ccsc2n1` [Example 69, (1S)-2-(dimethylamino)-1-phenylethyl 6,6-dimethyl-3-[(2-methylthieno[2,3-d]pyrimidin-4-yl)amino]-4,6-dihydropyrrolo[3,4-c]pyrazole-5(1H)-carboxylate] returned a Ki in experiment [1] of 1.9 nM. Further, in experiment [2], the concentration for a half-maximal effect (EC50) came to 3 nM.
In experiment [1], `CN(C)C[C@@H](OC(=O)N1Cc2c(Nc3ccnc(C#N)n3)n[nH]c2C1(C)C)c1ccccc1` [Example 70, (1S)-2-(dimethylamino)-1-phenylethyl 3-[(2-cyanopyrimidin-4-yl)amino]-6,6-dimethyl-4,6-dihydropyrrolo [3,4-c]pyrazole-5(1H)-carboxylate] gave a Ki of 8.8 nM. In experiment [2], this compound registered an EC50 of 1.9 nM.
On to `CCOc1ncc(F)c(Nc2n[nH]c3c2CN(C(=O)O[C@H](CN(C)C)c2ccccc2)C3(C)C)n1` [Example 72, (1S)-2-(dimethylamino)-1-phenylethyl 3-[(2-ethoxy-5-fluoropyrimidin-4-yl)amino]-6,6-dimethyl-4,6-dihydro-pyrrolo[3,4-c]pyrazole-5(1H)-carboxylate], for which the affinity in experiment [1] corresponds to a Ki of 16 nM. In addition, in experiment [2], the EC50 came out at 4.4 nM.
The corresponding values for `Cc1nc(Nc2n[nH]c3c2CN(C(=O)O[C@H](CN(C)C)c2ccccc2)C3(C)C)c2sccc2n1` [Example 73, (1S)-2-(dimethylamino)-1-phenylethyl 6,6-dimethyl-3-[(2-methylthieno[3,2-d]pyrimidin-4-yl)amino]-4,6-dihydropyrrolo[3,4-c]pyrazole-5(1H)-carboxylate] are 1.6 nM and < 3.9 nM.
As for `CN(C)C[C@@H](OC(=O)N1Cc2c(Nc3nc(C#N)nc4ccccc34)n[nH]c2C1(C)C)c1ccccc1` [Example 74, (1S)-2-(dimethylamino)-1-phenylethyl 3-[(2-cyanoquinazolin-4-yl)amino]-6,6-dimethyl-4,6-dihydropyrrolo[3,4-c]pyrazole-5(1H)-carboxylate], the inhibition constant (Ki) in experiment [1] came out at 3.6 nM. Also, the EC50 in experiment [2] is < 3.9 nM.
In the case of `CN(C)C[C@@H](OC(=O)N1Cc2c(Nc3ncnc4sccc34)n[nH]c2C1(C)C)c1ccccc1` [Example 75, (1S)-2-(dimethylamino)-1-phenylethyl 6,6-dimethyl-3-(thieno[2,3-d]pyrimidin-4-ylamino)-4,6-dihydropyrrolo[3,4-c]pyrazole-5(1H)-carboxylate], the Ki in experiment [1] turned out to be 5.2 nM. Further, the EC50 in experiment [2] is < 3.9 nM.
On to `CN(C)C[C@@H](OC(=O)N1Cc2c(Nc3ccnc(C(F)(F)F)n3)n[nH]c2C1(C)C)c1ccccc1` [Example 76, (1S)-2-(dimethylamino)-1-phenylethyl 6,6-dimethyl-3-{[2-(trifluoromethyl)pyrimidin-4-yl]amino}-4,6-dihydropyrrolo[3,4-c]pyrazole-5(1H)-carboxylate], for which, in experiment [1], the inhibition constant (Ki) was 8.3 nM. Besides, the 50% effective concentration (EC50) in experiment [2] is < 3.9 nM.
In experiment [1], `Cc1ncnc(Nc2n[nH]c3c2CN(C(=O)O[C@H](CN(C)C)c2ccccc2)C3(C)C)c1F` [Example 77, (1S)-2-(dimethylamino)-1-phenylethyl 3-[(5-fluoro-6-methylpyrimidin-4-yl)amino]-6,6-dimethyl-4,6-dihydropyrrolo[3,4-c]pyrazole-5(1H)-carboxylate] gave a Ki of 93 nM. Further, the EC50 in experiment [2] was 69 nM.
Consider `CN(C)C[C@@H](OC(=O)N1Cc2c(Nc3ncnc4c3ncn4C)n[nH]c2C1(C)C)c1ccccc1` [Example 78, (1S)-2-(dimethylamino)-1-phenylethyl 6,6-dimethyl-3-[(9-methyl-9H-purin-6-yl)amino]-4,6-dihydropyrrolo[3,4-c]pyrazole-5(1H)-carboxylate], for which, in experiment [1], the inhibition constant (Ki) is 330 nM. Also, in experiment [2], the EC50 was > 4000 nM.
Regarding `COc1ncc(F)c(Nc2n[nH]c3c2CN(C(=O)O[C@H](CN(C)C)c2ccccc2)C3(C)C)n1` [Example 79, (1S)-2-(dimethylamino)-1-phenylethyl 3-[(5-fluoro-2-methoxypyrimidin-4-yl)amino]-6,6-dimethyl-4,6-dihydropyrrolo[3,4-c]pyrazole-5(1H)-carboxylate], the Ki in experiment [1] is 39 nM. In addition, the 50% effective concentration (EC50) in experiment [2] was < 3.9 nM.
The corresponding values for `CN(C)C[C@@H](OC(=O)N1Cc2c(Nc3ncncc3F)n[nH]c2C1(C)C)c1ccccc1` [Example 80, (1S)-2-(dimethylamino)-1-phenylethyl 3-[(5-fluoropyrimidin-4-yl)amino]-6,6-dimethyl-4,6-dihydropyrrolo[3,4-c]pyrazole-5(1H)-carboxylate] are 120 nM and 20 nM.
As for `CN(C)C[C@@H](NC(=O)N1Cc2c(Nc3ncnc4ccoc34)n[nH]c2C1(C)C)c1ccccc1` [Example 83, N-[(1S)-2-(dimethylamino)-1-phenylethyl]-3-(furo[3,2-d]pyrimidin-4-ylamino)-6,6-dimethyl-4,6-dihydropyrrolo[3,4-c]pyrazole-5(1H)-carboxamide], the affinity in experiment [1], expressed as Ki, was 58 nM. Further, it took 84 nM to reach a half-maximal effect in experiment [2] (EC50).
